Assay results: US10232020B2, “Incretin-insulin conjugates” (priority 2014, dated 2019)
Starred links: 1 amine or outer side, 2 acyl side, 3 side chain; linkers in the order of their positions; H or OH if unused. Non-standard residues stand in square brackets, D forms with d. Groups on a side chain read outwards from the residue. No end group written: not given here. *: point of attachment. γGlu = O=C(O)[C@H](CCC(=O)[*:2])N[*:1]; Palmitoyl = CCCCCCCCCCCCCCCC(=O)*; Aib = CC(C)(N)C(=O)O

Legend:
[1] = molecular target: T1, insulin receptor (IR-B) (Homo sapiens, UniProt P06213); assay: In vitro activity at insulin B receptor (IR-B); format: cell-based; conditions: Table 4; read-out: Normalized IR-B EC50 (nM) MEAN
T1 construct: expressed in transfected cells
Experimental: Color development was stopped 5 min later by adding 0.05 ml 1 N HCl. Absorbance at 450 nm was measured on Titertek Multiscan MCC340 (ThermoFisher, Pittsburgh, Pa.). […] Structures associated with the abbreviated lipidated groups designated in Table 4 are as follows: […]

[2] = molecular target: T2, GLP-1 receptor (Homo sapiens, UniProt P43220); assay: cAMP synthesis luciferase reporter assay in HEK293 cells, GLP-1 receptor; format: cell-based; conditions: for EC50: read-out: Normalized GLP-1 EC50 (nM) MEAN, Table 4
T2 construct: expressed in transfected cells; host or cells: HEK293
Excerpt: (§1) Structures associated with the abbreviated lipidated groups designated in Table 4 are as follows: […]

[3] = physchem
Experimental: The rate of cleavage was determined for the respective propeptides. The concentrations of the propeptides and the model parent peptide were determined by their respective peak areas. […] The slope of this plot provides the rate constant ‘k’.

[4] = molecular target: T3, GIP receptor (Homo sapiens, UniProt P48546); conditions: general statement; cited from earlier work
T3 construct: expressed in transfected cells; host or cells: HEK293
T3 sequence (P48546 22-466): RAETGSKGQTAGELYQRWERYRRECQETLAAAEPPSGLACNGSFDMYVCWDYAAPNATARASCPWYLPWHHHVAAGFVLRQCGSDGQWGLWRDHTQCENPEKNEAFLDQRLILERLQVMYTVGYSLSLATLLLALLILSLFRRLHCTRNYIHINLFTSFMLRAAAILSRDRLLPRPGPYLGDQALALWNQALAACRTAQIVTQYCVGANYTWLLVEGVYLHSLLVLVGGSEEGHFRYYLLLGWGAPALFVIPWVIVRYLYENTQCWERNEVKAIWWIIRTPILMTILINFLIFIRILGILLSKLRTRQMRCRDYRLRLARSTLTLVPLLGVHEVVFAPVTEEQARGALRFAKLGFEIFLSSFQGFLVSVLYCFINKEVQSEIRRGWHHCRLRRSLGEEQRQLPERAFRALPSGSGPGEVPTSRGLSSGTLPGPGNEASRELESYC

[5] = particularly at physiological pH; cited from earlier work
[6] = system: diabetic mice; assay: Blood glucose, food intake and body weight in diabetic mice; format: in vivo; conditions: for body weight: FIG. 17D; for blood glucose levels and duration of action: FIG. 15B
Experimental: Six- to eight-week-old male C57BL/6 mice were maintained at 23° C., constant humidity, and a 12-h light-dark cycle. The acute in vivo effects of select peptides were evaluated by subcutaneously injecting peptides solubilized in physiologically buffered saline or a vehicle control to normal or diabetic mice. Blood glucose was measured at various time points through the course of a 24 hr period following administration of the peptides. Each group of mice contained 8 animals per group. The average body weight was ˜25 g. Mice were made diabetic by administration of streptozotocin.
Repeat daily subcutaneous administration of the peptides or vehicle control was administered to the mice for periods of five days to two weeks. The obese mice were given a diabetogenic diet Mice had free access to water and were fed ad libitum with a high fat diet (HFD) comprising 58% of calories from fat (D12331; Research Diets, New Brunswick, N.J.) and each group of mice contained 8 animals per group. The average body weight was ˜50 g and the mice were ˜6 months old males. Body weight and food intake were measured on the days that peptide or vehicle control was administered to the mice. Fasting blood glucose levels were measured repeatedly.

[7] = system: diabetic mice; assay: as above; format: in vivo; conditions: four days; for weight loss: daily or twice a day, FIG. 14B
[8] = molecular target: T3, GIP receptor; assay: cAMP synthesis luciferase reporter assay in HEK293 cells, GIP receptor; format: cell-based; conditions: read-out: Normalized GIP EC50 (nM) MEAN; Table 4
Excerpt: as §1

T2 sequence (P43220 24-463, species assumed): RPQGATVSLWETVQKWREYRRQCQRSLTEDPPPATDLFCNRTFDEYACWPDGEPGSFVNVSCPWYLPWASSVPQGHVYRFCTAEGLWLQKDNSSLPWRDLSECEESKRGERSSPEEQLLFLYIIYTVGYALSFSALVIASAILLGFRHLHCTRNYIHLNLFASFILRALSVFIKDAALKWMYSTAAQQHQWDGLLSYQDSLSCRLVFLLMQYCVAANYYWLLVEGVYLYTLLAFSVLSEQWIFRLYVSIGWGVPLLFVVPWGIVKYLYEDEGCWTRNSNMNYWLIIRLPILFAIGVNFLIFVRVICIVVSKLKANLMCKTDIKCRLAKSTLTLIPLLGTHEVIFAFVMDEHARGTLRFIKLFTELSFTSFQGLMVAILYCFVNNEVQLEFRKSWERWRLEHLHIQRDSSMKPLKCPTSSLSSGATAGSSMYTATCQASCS

Q: Which results are given for “CIU-004: XEGTFTSDVSSYLEEQAAKEFIAWLVKGGPSSGAPPPS (SEQ ID NO: 1945); C(S-S)—CH2CH2CH2-B^1 Insulin (conjugate chemistry not built)”?
A: EC50 [1]: 0.59 nM; EC50 [2]: 7.96 nM

Q: For “CPHSRGTF-NH2 [Table 3 no. 6: C, P, H-SRGTF-NH2]”, which t1/2 ([3]; buffer) is on record?
A: No cleavage

Q: Which t1/2 ([3]; Table 3, words or unit not given, PBS) does the source give for “KPHSRGTF-NH2 [Table 3 no. 9: K, P, H-SRGTF-NH2]” here?
A: No cleavage

Q: Which t1/2 ([3]; buffer) does the source give for “FPHSRGTF-NH2 [Table 3 no. 1: F, P, H-SRGTF-NH2]” here?
A: No cleavage

Q: With C[C@@H](O)[C@H](NC(=O)CNC(=O)[C@H](CCCNC(=N)N)NC(=O)[C@H](CO)NC(=O)[C@H](Cc1c[nH]cn1)NC(=O)[C@H]1CCCN1C(=O)[C@@H]1CCCN1)C(=O)N[C@@H](Cc1ccccc1)C(N)=O [Table 3 no. 12: P, d-P, H-SRGTF-NH2] as the compound, how does the t1/2 ([3]; buffer) read?
A: No cleavage

Q: Which t1/2 ([3]; buffer) does the source give for “SPHSRGTF-NH2 [Table 3 no. 7: S, P, H-SRGTF-NH2]” here?
A: No cleavage

Q: What does the source list for “Native glucagon: peptide consisting of the sequence of SEQ ID NO: 701”?
A: activation of the GIP receptor [4]: does not activate the GIP receptor; solubility in aqueous solution [5]: poor solubility in aqueous solution

Q: For “CIU-037: HXEGTFTSDVSSYLEEQAAREFIAWLVRGGPSSGAPPPSK(20K PEG) (SEQ ID NO: 1966); C(S-S)—CH2CH2CH2-B^1 Insulin”, which blood glucose levels ([6]; 1, 2.5 or 5 nmol/kg, seven days, FIG. 17B) is on record?
A: improved blood glucose levels achieved relative to pegylated insulin

Q: And the blood glucose levels ([6]; 5, 10 or 20 nmol/kg, FIG. 16B)?
A: blood glucose levels inversely proportional to the dose administered

Q: And the “fat mass and lean mass” value ([6]; FIG. 17E)?
A: comes from fat mass and not lean mass

Q: What about the food intake ([6]; seven days, FIG. 17C) of the same compound?
A: suppress food intake

Q: What about the body weight ([6]; seven days) of the same compound?
A: induces loss in body weight

Q: With CC(C)=C(N)C(=O)N1CCC[C@H]1C(=O)N[C@@H](Cc1c[nH]cn1)C(=O)N[C@@H](CO)C(=O)N[C@@H](CCCNC(=N)N)C(=O)NCC(=O)N[C@H](C(=O)N[C@@H](Cc1ccccc1)C(N)=O)[C@@H](C)O as the compound, how does the t1/2 ([3]; buffer) read?
A: No cleavage

Q: With C[C@@H](O)[C@H](NC(=O)CNC(=O)[C@H](CCCNC(=N)N)NC(=O)[C@H](CO)NC(=O)[C@H](Cc1c[nH]cn1)NC(=O)[C@@H]1CCCN1C(=O)[C@H]1CCCN1)C(=O)N[C@@H](Cc1ccccc1)C(N)=O [Table 3 no. 13: d-P, P, H-SRGTF-NH2] as the compound, how does the t1/2 ([3]; buffer) read?
A: No cleavage

Q: For C[C@@H](O)[C@H](NC(=O)CNC(=O)[C@H](CCCNC(=N)N)NC(=O)[C@H](CO)NC(=O)[C@H](Cc1c[nH]cn1)NC(=O)[C@@H]1CCCN1C(=O)[C@@H](O)Cc1ccccc1)C(=O)N[C@@H](Cc1ccccc1)C(N)=O, which t1/2 ([3]; buffer) is on record?
A: No cleavage

Q: For C[C@@H](O)[C@H](NC(=O)CNC(=O)[C@H](CCCNC(=N)N)NC(=O)[C@H](CO)NC(=O)[C@H](Cc1c[nH]cn1)NC(=O)[C@@H](N)Cc1ccc(NC(=O)CNC(=O)CN)cc1)C(=O)N[C@@H](Cc1ccccc1)C(N)=O, which t1/2 ([3]; Table 2, result in words, PBS) is on record?
A: No cleavage

Q: Which t1/2 ([3]; buffer) does the source give for “APHSRGTF-NH2 [Table 3 no. 5: A, P, H-SRGTF-NH2]” here?
A: No cleavage

Q: Which “blood glucose levels and duration of action” value [6] does the source give for “CIU-012: HXEGTFTSDUSSYLEEQAAKEFIAWLVKGGPSSGAPPPSG (SEQ ID NO: 1953); C(S-S)—CH2CH2CH2-B^1 Insulin” here?
A: demonstrate activity in reducing blood glucose levels and demonstrate an extended duration of action relative to native insulin

Q: What does the source list for “CIU-013: HXEGTFTSDVSSYLEEQAAKEFIAWLVKGGPSSGAPPPSGU (SEQ ID NO: 1954); C(S-S)—CH2CH2CH2-B^1 Insulin”?
A: lowering blood glucose ([6]; 5, 15 or 20 nmoles/kg, FIG. 11B): all doses of the compound are effective in lowering blood glucose; food intake ([6]; FIG. 13): suppressing food intake; blood glucose levels and duration of action [6]: demonstrate activity in reducing blood glucose levels and demonstrate an extended duration of action relative to native insulin; blood glucose ([6]; daily or 2× a day, one fifth the dosage of the pegylated insulin, FIG. 14D): would appear to not be as effective as insulin; 24 hour blood glucose ([6]; second administration at 6 hours, 10 nmole/kg(×2), FIG. 12B): about 100 mg/dL; food intake ([7]; FIG. 14C): suppresses food intake relative to the administration of the pegylated insulin analog; weight loss [7]: produced significant weight loss

Q: For C[C@@H](O)[C@H](NC(=O)CNC(=O)[C@H](CCCNC(=N)N)NC(=O)[C@H](CO)NC(=O)[C@H](Cc1c[nH]cn1)NC(=O)[C@@H]1CCCN1C(=O)CO)C(=O)N[C@@H](Cc1ccccc1)C(N)=O, which t1/2 ([3]; buffer) is on record?
A: No cleavage

Q: With “SEQ ID NO: 128: glucagon analog substituting the native glutamine at position 3 with glutamic acid” as the compound, how does the “selectivity for the GLP-1 receptor” value ([2]; versus glucagon receptor) read?
A: tenfold

Q: What does the source list for “CIU-26: pegylated native insulin (20 K PEG linked to the B29 side chain) [reference compound]”?
A: food intake ([6]; FIG. 13): does not; food intake ([6]; FIG. 16C): did not; food intake ([6]; seven days, FIG. 17C): does not; body weight ([6]; seven days): not; weight loss [7]: failed to induce weight loss

Q: For C[C@@H](O)[C@H](NC(=O)CNC(=O)[C@H](CCCNC(=N)N)NC(=O)[C@H](CO)NC(=O)[C@H](Cc1c[nH]cn1)NC(=O)[C@@H](N)Cc1ccc(NC(=O)CNC(=O)CO)cc1)C(=O)N[C@@H](Cc1ccccc1)C(N)=O, which t1/2 ([3]; Table 2, result in words, PBS) is on record?
A: No cleavage

Q: With “GPHSRGTF-NH2 [Table 3 no. 3: G, P, H-SRGTF-NH2]” as the compound, how does the t1/2 ([3]; buffer) read?
A: No cleavage

Q: For “CIU-055: HXEGTFTSDVSSYLEEQAAREFIAWLVRGGPSSGAPPPSK(20K PEG) (SEQ ID NO: 1974); C(S-S)—CH2CH2CH2-B^1 DesDi”, which EC50 [1] is on record?
A: 1140 nM

Q: Which “blood glucose levels and duration of action” value [6] does the source give for “CIU-021: HXEGTFTSDUSSYLEEQAAKEFIAWLVKGGPSSGAPPPSG (SEQ ID NO: 1958); Pen(S-S)—CH2CH2CH2-B^1 Insulin” here?
A: demonstrate activity in reducing blood glucose levels and demonstrate an extended duration of action relative to native insulin

Q: With “CIU-123: HXEGTFTSDUSIYLDKQAAXEFVNWLLAGGPSSGAPPPS (SEQ ID NO: 2013); C(S-S)—CH2CH2CH2-B^1Desdi (H[Aib]EGTFTSDK([γGlu-Palmitoyl])SIYLDKQAA[Aib]EFVNWLLAGGPSSGAPPPS; also: disulfide-linked propyl to B1 of desdi insulin, site not given here)” as the compound, how does the EC50 [2] read?
A: 0.0032 nM

Q: And the EC50 [8]?
A: 0.0036 nM

Q: With “EPHSRGTF-NH2 [Table 3 no. 10: E, P, H-SRGTF-NH2]” as the compound, how does the t1/2 ([3]; buffer) read?
A: No cleavage

Q: For CNC(C)(C)C(=O)N1CCC[C@H]1C(=O)N[C@@H](Cc1c[nH]cn1)C(=O)N[C@@H](CO)C(=O)N[C@@H](CCCNC(=N)N)C(=O)NCC(=O)N[C@H](C(=O)N[C@@H](Cc1ccccc1)C(N)=O)[C@@H](C)O [Table 3 no. 19: N—Me-Aib, P, H-SRGTF-NH2], which half-life ([3]; buffer) is on record?
A: > 20.8 days

Q: With “CIU-146: YXEGTFTSDU2SIYLDKQAAXEFVNWLLAGGPSSGAPPPS (SEQ ID NO: 2014); C(S-S)—CH2CH2CH2-B^1Desdi (Y[Aib]EGTFTSDKSIYLDKQAA[Aib]EFVNWLLAGGPSSGAPPPS; not fully specified (residue 10, C-terminus); also: disulfide-linked propyl to B1 of desdi insulin, site not given here)” as the compound, how does the EC50 [8] read?
A: 0.0014 nM

Q: With C[C@@H](O)[C@H](NC(=O)CNC(=O)[C@H](CCCNC(=N)N)NC(=O)[C@H](CO)NC(=O)[C@H](Cc1c[nH]cn1)NC(=O)[C@@H]1CCCN1C(=O)[C@@H]1CCCN1)C(=O)N[C@@H](Cc1ccccc1)C(N)=O [Table 3 no. 8: P, P, H-SRGTF-NH2] as the compound, how does the t1/2 ([3]; buffer) read?
A: No cleavage
